# Experimental data as given in BindingDB's records for doi:10.1016/S0960-894X(96)00551-3 (1996).
# Assays:
# [1] = biological target: Endothelin A receptor (Oryctolagus cuniculus); assay: Compound was tested for its ability to inhibit Endothelin A receptor induced arachidonic acid release(AARA) in rabbit renal artery vascular smooth muscles.
# [2] = biological target: Endothelin A receptor (Oryctolagus cuniculus); assay: Antagonistic activity against endothelin A receptor in rabbit renal artery vascular smooth muscle cells.
# [3] = Compound was tested for its ability to inhibit Endothelin A receptor induced arachidonic acid release(AARA) in rabbit renal artery vascular smooth muscles.
SMILES,IC50 [1] [µM],IC50 [2] [µM],further results
"Cc1cc(C(C(N)=O)c2ccc3c(c2)OCO3)c2ccccc2n1 (stereo unspecified) [2-Benzo[1,3]dioxol-5-yl-2-(2-methyl-quinolin-4-yl)-acetamide]",13,,
"OCC(c1ccc2c(c1)OCO2)c1c2ccccc2nc2ccccc12 (stereo unspecified) [2-Acridin-9-yl-2-benzo[1,3]dioxol-5-yl-ethanol]",,,IC50 [3]: 10 µM
"COC(=O)C(Cc1c2ccccc2cc2ccccc12)c1ccc2c(c1)OCO2 (stereo unspecified) [3-Anthracen-9-yl-2-benzo[1,3]dioxol-5-yl-propionic acid methyl ester]",,> 25,

# Second part, led by results:
IC50 [1] [µM],IC50 [2] [µM],SMILES,further results
,7.5,"O=C(OCc1ccccc1)C(c1ccc2c(c1)OCO2)c1c2ccccc2nc2ccccc12 (stereo unspecified) [Acridin-9-yl-benzo[1,3]dioxol-5-yl-acetic acid benzyl ester]",
,8.7,"O=C(OCc1ccc2c(c1)OCO2)C(c1ccc2c(c1)OCO2)c1c2ccccc2nc2ccccc12 (stereo unspecified) [Acridin-9-yl-benzo[1,3]dioxol-5-yl-acetic acid benzo[1,3]dioxol-5-ylmethyl ester]",
2.8,,"COC(=O)C(c1ccc2c(c1)OCO2)c1cc(C)nc2ccccc12 (stereo unspecified) [Benzo[1,3]dioxol-5-yl-(2-methyl-quinolin-4-yl)-acetic acid methyl ester]",
